Molecular target: (^3 H)naloxone binding sites
Experiment: competition binding assay with (3H)naloxone on rat brain membranes
Settings: membranes incubated with (3H)naloxone 1 nM and increasing ligand concentrations; read-out: Affinity constants (Ki nM) in competition assays
Method: Membrane preparation: A crude membrane fraction from rat brain (PVG/C strain) was prepared [Mol. Pharm.11 (1975) 340-351 and the protein content was defined [Anal. Biochem. 72(1976) 248-254).
The membrane suspension (200-400 μg protein) was incubated with the specific radioligand for 1 hour on ice. Incubations were terminated by rapid filtration under vacuo followed by washing with ice cold tris HCl buffer (50 mM, pH 7,4). Radioactivity was measured in a toluene based scintillation mixture on a LKB Minibeta Liquid Scintillation Spectrophotometer. Nonspecific binding was defined in the presence of 10 μM unlabeled naloxone. All assays were performed in triplicate and repeated several times. Ki values were determined from equilibrium experiments and calculated with the Tshang-Prusov equation. The data were evaluated using the Ligand program [Anal. Biol. Chem. 107 (1980) 220-239](Data shown on Table III/1).

Compound | Ki [nM]
CN1CC[C@]23c4c5ccc(O)c4O[C@H]2C(=NN)CC[C@H]3[C@H]1C5 [dihydromorphinone hydrazone] | 6
CN1CC[C@]23c4c5ccc(O)c4O[C@H]2C(=NO)CC[C@H]3[C@H]1C5 [dihydromorphinone oxime] | 2
CN1CC[C@]23c4c5ccc(O)c4O[C@H]2C(=NNc2ccccc2)CC[C@H]3[C@H]1C5 [dihydromorphinone phenylhydrazone] | 5
CN1CC[C@]23c4c5ccc(O)c4O[C@H]2C(=NNC(N)=O)CC[C@H]3[C@H]1C5 [dihydromorphinone semicarbazone] | 3
CN1CC[C@]23c4c5ccc(O)c4O[C@H]2C(=NN)CC[C@@]3(O)[C@H]1C5 [oxymorphone hydrazone] | 2
CN1CC[C@]23c4c5ccc(O)c4O[C@H]2C(=NO)CC[C@@]3(O)[C@H]1C5 [oxymorphone oxime] | 2
CN1CC[C@]23c4c5ccc(O)c4O[C@H]2C(=NNc2ccccc2)CC[C@@]3(O)[C@H]1C5 [oxymorphone phenylhydrazone] | 20
CN1CC[C@]23c4c5ccc(O)c4O[C@H]2C(=NNC(N)=O)CC[C@@]3(O)[C@H]1C5 [oxymorphone semicarbazone] | 4

Reference: US5317022A, “Pharmaceutical composition and use” (priority 1991, dated 1994)
